Source: patent publication US8975289B2, “Benzyl aralkyl ether compounds, method for preparing same, intermediate compounds, use of said compounds, method for treatment and/or prevention, pharmaceutical composition and medicament containing same” (priority 2009, dated 2015)
In brackets after ≈: the same amount, converted by molar mass.

Legend:
Format in all cases: cell-based
Candida albicans 10231 = assay: Broth microdilution MIC (M27-A2), yeast, strain XIV; conditions: strain XIV 10231, 48 hours incubation
Protocol: (§1) For the experiments of the present invention (i) yeast strains obtained from clinical isolates and laboratory isolates, and (ii) bacterial strains obtained from laboratory isolates were used, as described in Table 5 as follows. The yeast strains were grown in culture medium Sabouraud Dextrose Agar maintained at a temperature of 35° C. for 48 hours. […] The compounds were dissolved in dimethyl sulfoxide (DMSO) to match the final concentration of the compound equal to or less than 1%. The methodology used to test the sensitivity of the agent was broth microdilution according to the method described in Standard M27-A2 (Reference method for broth dilution tests to determine the sensitivity of yeasts to antifungal therapy-second edition, NCCLS, volume 22 number 15, USA, 2002) as follows. […] Then the suspensions were diluted in culture medium RPMI-1640 (buffered with MOPS 0.165 mol/l) at a final concentration of 50 to 2500 CFU/mL. The diluted suspensions were inoculated in duplicate in a 96-well plate. The procedure was performed in a laminar flow. […] The incubation of fungi with these compounds was carried out for 48 hours at temperature of 30 to 35° C. […] We have agreed in this experiment that the turbid medium is the result of microbial growth and the presence of deposit and a clear medium represents the absence of microbial growth. The minimum inhibitory concentration (MIC) was defined as the lowest tested drug concentration that prevents any degree of […] growth.

[1] = system: Candida parapsilosis 22019; assay: Broth microdilution MIC (M27-A2), yeast, strain XV; conditions: strain XV 22019, 48 hours incubation
Protocol: as §1

Candida glabrata 2001 = assay: Broth microdilution MIC (M27-A2), yeast, strain XVI; conditions: strain XVI 2001, 48 hours incubation
Protocol: as §1

[2] = system: Staphylococcus epidermidis 12228; assay: Broth microdilution MIC (M7-A6), bacteria, strain XVII; conditions: strain XVII 12228, 24 hours incubation
Protocol: (§2) For the experiments of the present invention (i) yeast strains obtained from clinical isolates and laboratory isolates, and (ii) bacterial strains obtained from laboratory isolates were used, as described in Table 5 as follows. […] The compounds were dissolved in dimethyl sulfoxide (DMSO) to match the final concentration of the compound equal to or less than 1%. The methodology used to test the sensitivity of the agent was broth microdilution according to the method described in Standard M7-A6 (Methodology of sensitivity tests to antimicrobial agents by dilution for bacteria with aerobic growth-6th Edition: NCCLS, volume 23, No. 2, USA, 2003), as follows. […] Then the suspensions were diluted in Mueller Hinton culture medium to a final concentration of 5×10^4CFU/mL. The diluted suspensions were inoculated in 0.1 mL in duplicates in […] plates. The procedure was performed in a laminar flow. […] Incubation of fungi with these compounds was carried out for 24 hours at a temperature of 30 to 35° C. […] We have agreed in this experiment that the turbid medium is the result of microbial growth and the presence of deposit and a clear medium represents the absence of microbial growth. The minimum inhibitory concentration (MIC) was defined as the lowest tested drug concentration that prevents any degree of bacterial growth.

[3] = system: Staphylococcus aureus 6538; assay: Broth microdilution MIC (M7-A6), bacteria, strain XVIII; conditions: strain XVIII 6538, 24 hours incubation
Protocol: as §2

[4] = system: three different species of yeast and two distinct species of bacteria; assay: Growth inhibition of the yeast and bacteria strains of Table 5, summary
Protocol: For the experiments of the present invention (i) yeast strains obtained from clinical isolates and laboratory isolates, and (ii) bacterial strains obtained from laboratory isolates were used, as described in Table 5 as follows.
The yeast strains were grown in culture medium Sabouraud Dextrose Agar maintained at a temperature of 35° C. for 48 hours.
The bacterial strains were grown in culture medium Triptic Soy Agar at 35° C. for two to six hours (or until the turbidity of a McFarland standard solution equal to 0.5). 5.2 Mounting of Preparations and Test For the experiments, compound 1-[2-(2,4-dichlorophenyl)-2-{[4-(trifluoromethyl)benzyl]oxy}ethyl]-1H-imidazole (BL-123) in the form of its nitrate salt, 1-[2-(2,4-dichlorophenyl)]-2-({4-[(2-phenyl)-2H-tetrazole]benzyl}oxy)ethyl]-1H-imidazole (BL-137), and miconazole nitrate were used. The compounds were dissolved in dimethyl sulfoxide (DMSO) to match the final concentration of the compound equal to or less than 1%.
The methodology used to test the sensitivity of the agent was broth microdilution according to the method described in Standard M27-A2 (Reference method for broth dilution tests to determine the sensitivity of yeasts to antifungal therapy-second edition, NCCLS, volume 22 number 15, USA, 2002) as follows.
The yeast strains were grown according to item 5.1.a to obtain a culture containing between 1×10^6 and 5×10^6 CFU/mL. […]

Clc1ccc(C(Cn2ccnc2)OCc2ccc(-c3nnn(-c4ccccc4)n3)cc2)c(Cl)c1 (stereo not drawn) [BL-137]
MIC (Candida albicans 10231): 512.0 µg/mL (≈ 1040 µM)
MIC [1]: 512.0 µg/mL (≈ 1040 µM)
MIC (Candida glabrata 2001): 512.0 µg/mL (≈ 1040 µM)
MIC [2]: 128.0 µg/mL (≈ 260 µM)
MIC [3]: 128.0 µg/mL (≈ 260 µM)
Inhibitory effect on growth (in words) [4]: exert an inhibitory effect on the growth
